Laboratory results: ChEMBL document CHEMBL1133329, “N-acyl phenylalanine analogues as potent small molecule VLA-4 antagonists” (Bioorg Med Chem Lett, 2000)

What was measured:
Type in all cases: cell-based
[1] = target: T1, Integrin alpha-4/beta-1 (Homo sapiens, UniProt P05556+P13612); test: Inhibition of recombinant human VCAM binding to VLA-4 of Ramos cells at 10 uM
[2] = target: T1, Integrin alpha-4/beta-1; test: Antagonistic activity against VLA-4 (derived from ramos cells) binding to recombinant human VCAM
[3] = target: T1, Integrin alpha-4/beta-1; test: Inhibition of CS-1 peptide binding to VLA-4 expressed in Ramos cells

T1 sequence (P05556 whole entry): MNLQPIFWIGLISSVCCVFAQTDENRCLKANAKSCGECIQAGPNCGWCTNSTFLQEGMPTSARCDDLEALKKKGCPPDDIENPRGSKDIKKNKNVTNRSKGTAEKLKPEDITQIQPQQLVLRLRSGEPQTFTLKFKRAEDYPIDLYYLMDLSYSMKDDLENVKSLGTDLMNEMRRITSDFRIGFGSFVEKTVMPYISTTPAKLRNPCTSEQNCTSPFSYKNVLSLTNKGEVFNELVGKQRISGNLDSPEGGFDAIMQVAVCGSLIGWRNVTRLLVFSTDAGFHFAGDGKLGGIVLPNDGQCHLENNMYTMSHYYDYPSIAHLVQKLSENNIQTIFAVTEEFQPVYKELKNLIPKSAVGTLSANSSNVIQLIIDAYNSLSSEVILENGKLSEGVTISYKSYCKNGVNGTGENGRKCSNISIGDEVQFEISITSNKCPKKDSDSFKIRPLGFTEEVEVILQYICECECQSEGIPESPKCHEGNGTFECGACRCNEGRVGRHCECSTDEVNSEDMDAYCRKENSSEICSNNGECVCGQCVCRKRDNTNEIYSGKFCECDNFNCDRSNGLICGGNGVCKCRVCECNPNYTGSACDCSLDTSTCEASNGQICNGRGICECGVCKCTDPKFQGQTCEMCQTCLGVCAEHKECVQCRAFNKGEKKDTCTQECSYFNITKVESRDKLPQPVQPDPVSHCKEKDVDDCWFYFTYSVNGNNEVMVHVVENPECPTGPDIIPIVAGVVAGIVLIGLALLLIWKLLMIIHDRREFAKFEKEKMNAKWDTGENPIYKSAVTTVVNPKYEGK
T1 sequence (P13612 whole entry): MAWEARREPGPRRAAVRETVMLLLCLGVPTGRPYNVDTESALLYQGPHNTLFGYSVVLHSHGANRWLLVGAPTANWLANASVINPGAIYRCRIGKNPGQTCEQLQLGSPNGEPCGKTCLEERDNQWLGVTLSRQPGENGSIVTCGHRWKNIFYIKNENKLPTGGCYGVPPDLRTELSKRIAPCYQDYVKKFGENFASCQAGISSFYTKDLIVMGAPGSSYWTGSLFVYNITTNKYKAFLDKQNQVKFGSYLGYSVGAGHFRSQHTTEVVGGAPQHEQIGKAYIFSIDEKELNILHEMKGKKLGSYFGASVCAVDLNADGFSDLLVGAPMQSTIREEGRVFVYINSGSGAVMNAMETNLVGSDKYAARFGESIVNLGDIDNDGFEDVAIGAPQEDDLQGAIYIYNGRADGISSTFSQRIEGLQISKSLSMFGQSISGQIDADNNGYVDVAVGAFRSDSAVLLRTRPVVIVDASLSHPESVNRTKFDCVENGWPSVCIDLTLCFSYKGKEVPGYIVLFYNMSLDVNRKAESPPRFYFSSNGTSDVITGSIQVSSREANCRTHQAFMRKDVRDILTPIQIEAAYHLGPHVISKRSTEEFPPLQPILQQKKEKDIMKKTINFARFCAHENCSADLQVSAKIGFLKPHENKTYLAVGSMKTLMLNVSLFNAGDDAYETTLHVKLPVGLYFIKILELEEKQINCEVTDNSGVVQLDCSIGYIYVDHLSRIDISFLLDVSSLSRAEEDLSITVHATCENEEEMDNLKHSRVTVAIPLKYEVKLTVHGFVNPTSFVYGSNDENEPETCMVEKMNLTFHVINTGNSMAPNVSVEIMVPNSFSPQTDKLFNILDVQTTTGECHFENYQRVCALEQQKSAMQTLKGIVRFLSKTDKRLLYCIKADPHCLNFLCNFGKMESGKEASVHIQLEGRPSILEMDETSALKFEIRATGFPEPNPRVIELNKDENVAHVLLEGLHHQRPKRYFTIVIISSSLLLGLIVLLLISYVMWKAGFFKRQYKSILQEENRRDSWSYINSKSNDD

CCCCCOc1ccc(C[C@H](NC(=O)c2cccnc2)C(=O)O)cc1
inhibition [1]: 87%
IC50 [2]: 3800 nM

CCCCCOc1ccc(C[C@H](NC(=O)C2CC(=O)N(C)C2c2cccnc2)C(=O)O)cc1 (stereo in doubt; 3) [listing 1 of 2 here]
inhibition [1]: 81%

CCCCCOc1ccc(C[C@H](NC(=O)/C(=N/OC)c2csc(N)n2)C(=O)O)cc1
IC50 [2]: 60 nM

CC1(C(=O)N[C@@H](Cc2ccc(C#CCCCC(=O)O)cc2)C(=O)O)CC1(Cl)Cl (stereo not given in full)
inhibition [1]: 80%
IC50 [2]: 187 nM

CCCCCOc1ccc(C[C@H](NC(=O)[C@@H]2CCC(=O)N2Cc2ccccc2)C(=O)O)cc1
inhibition [1]: 97%
IC50 [2]: 46 nM

CCCCCOc1ccc(C[C@H](NC(=O)C2CC(=O)N(C)C2c2cccnc2)C(=O)O)cc1 (stereo in doubt; 3) [listing 2 of 2 here]
IC50 [2]: 1700 nM

CC(C)(C)OC(=O)N1CCC[C@H](CC(=O)N[C@@H](Cc2ccc(C#CCCCC(=O)O)cc2)C(=O)O)C1
IC50 [2]: 640 nM

CCCCCOc1ccc(C[C@H](NC(=O)[C@@H]2CSCN2C(C)=O)C(=O)O)cc1
IC50 [3]: 4200 nM
IC50 [2]: 112 nM

CO/N=C(\C(=O)N[C@@H](Cc1ccc(C#CCCCC(=O)OC)cc1)C(=O)O)c1csc(N)n1
inhibition [1]: 99%
IC50 [2]: 135 nM

CCCCCOc1ccc(C[C@H](NC(=O)C2CC(=O)N(C)C2c2cccnc2)C(=O)O)cc1 (stereo in doubt; 22) [listing 1 of 2 here]
IC50 [2]: 870 nM

CCCCCOc1ccc(C[C@H](NC(=O)c2c(C)cc(C)cc2C)C(=O)O)cc1
IC50 [2]: 245 nM

CCCCCOc1ccc(C[C@H](NC(=O)C2CC(=O)N(C)C2c2cccnc2)C(=O)O)cc1 (stereo in doubt; 22) [listing 2 of 2 here]
inhibition [1]: 90%

COC(=O)CCCC#Cc1ccc(C[C@H](NC(=O)c2ccc(S(N)(=O)=O)cc2)C(=O)O)cc1
inhibition [1]: 94%
IC50 [2]: 317 nM

O=C(O)CCCC#Cc1ccc(C[C@H](NC(=O)[C@@H]2CCC(=O)N2Cc2ccccc2)C(=O)O)cc1
IC50 [2]: 20 nM

CCCCCCc1ccc(C[C@H](NC(=O)Cc2cccc(NC(=N)N)c2)C(=O)O)cc1
IC50 [2]: 7000 nM

CCCCCOc1ccc(C[C@H](NC(=O)Cc2cccc(N)c2)C(=O)O)cc1
IC50 [2]: 4500 nM

CCCCCOc1ccc(C[C@H](NC(=O)c2c3ccccc3nc3ccccc23)C(=O)O)cc1
inhibition [1]: 92%
IC50 [2]: 590 nM

CCCCCOc1ccc(C[C@H](NC(=O)C2(C)CC2(Cl)Cl)C(=O)O)cc1 (stereo not given in full)
IC50 [2]: 210 nM
